{"source": "patent US12180226B2", "about": "“Spirotricycle RIPK1 inhibitors and methods of uses thereof” (Merck Sharp & Dohme LLC, priority 2021, dated 2024)", "note": "Structures can show the parent of a compound that is named as a salt."}
{"molecular_target": "RIPK1 (recombinant GST-RIPK1 kinase domain, residues 1-327) (Homo sapiens (Human), UniProt Q13546)", "sequence (Q13546 1-327)": "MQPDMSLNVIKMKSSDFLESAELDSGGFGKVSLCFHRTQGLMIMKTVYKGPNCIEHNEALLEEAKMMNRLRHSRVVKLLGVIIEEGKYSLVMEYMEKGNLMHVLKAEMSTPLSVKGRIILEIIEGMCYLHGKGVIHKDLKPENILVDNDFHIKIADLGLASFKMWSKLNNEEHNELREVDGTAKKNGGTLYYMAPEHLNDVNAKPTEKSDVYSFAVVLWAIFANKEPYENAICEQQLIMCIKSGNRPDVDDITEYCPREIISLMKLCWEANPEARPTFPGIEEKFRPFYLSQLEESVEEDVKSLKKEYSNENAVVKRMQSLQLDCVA", "experiment": "RIPK1-ADP-Glo Enzymatic Assay", "format": "biochemical", "details": "ADP-Glo; 25 nM GST-RIPK1, 300 μM ATP; assay lower limit ~25 nM; read-out: RIPK1 V0 Ec50", "procedure,_shortened": "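Enzyme from baculovirus-infected Sf21 cells, 25 nM final, was pre-incubated 30 min at ambient temperature with compound (ten-point, 1:3 dilution from 100000 nM, 1% DMSO), then reacted 150 min with 300 μM ATP and 3 μM dephosphorylated MBP. ADP was read by luminescence; EC50 from four-parameter fit.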", "units": {"EC50": "nM"}}
{"smiles": "O=C1N2[C@@H](CC[C@H]2c2ccccc2)OC12CCN(c1ccnc3c(F)cnn13)CC2F", "note": "(single isomer, unassigned) [Example 4.92, (3[S or R],4[R or S], 5′S,7a′R)-3-fluoro-1-(3-fluoropyrazolo[1,5-a]pyrimidin-7-yl)-5′-phenyltetrahydro-3′H-spiro[piperidine-4,2′-pyrrolo[2,1-b]oxazol]-3′-one, TFA salt]", "EC50": "< 25"}
{"smiles": "COc1cccc(C(=O)N2CCC3(CC2)O[C@@H]2CC[C@@H](c4ccccc4)N2C3=O)c1", "note": "[Example 6.155, (5′S,7a′R)-1-(3-methoxybenzene-1-carbonyl)-5′-phenyl-tetrahydro-3′H-spiro [piperidine-4,2′-pyrrolo[2,1-b][1,3]oxazol]-3′-one]", "EC50": "< 25"}
{"smiles": "O=C1N2[C@@H](CC[C@H]2c2ccccc2F)OC12CCN(c1ccnc(Cl)c1)CC2", "note": "[Example 4.268, (5′S,7a′R)-1-(2-chloropyridin-4-yl)-5′-(2-fluorophenyl)tetrahydro-3′H-spiro[piperidine-4,2′-pyrrolo[2,1-b] [1,3]oxazol]-3′-one]", "EC50": "< 25"}
{"smiles": "N#Cc1cccnc1C(=O)N1CCC2(CC1)O[C@@H]1CC[C@@H](c3cc(F)cc(F)c3)N1C2=O", "note": "[Example 6.103, 2-[(5′S,7a′R)-5′-(3,5-difluorophenyl)-3 oxotetrahydro-1H,3′H-spiro[piperidine-4,2′-pyrrolo[2,1-b][1,3]-oxazole]-1-carbonyl]-pyridine-3-carbonitrile]", "EC50": 934}
{"smiles": "O=C1N2[C@@H](CC[C@H]2c2ccccc2)OC12CCN(c1ccc(-c3ncco3)c3ccnn13)CC2", "note": "[Example 21.22, (5′S,7a′R)-1-[4-(1,3-oxazol-2-yl)pyrazolo[1,5-a]pyridin-7-yl]-5′-phenyltetrahydro-3′H-spiro[piperidine-4,2′-pyrrolo[2,1-b][1,3]oxazol]-3′-one]", "EC50": "< 25"}
{"smiles": "O=C(c1coc(Cl)n1)N1CCC2(CC1)O[C@@H]1CC[C@@H](c3cccc(F)c3)N1C2=O", "note": "[Example 6.127, (5′S,7a′R)-1-(2-chloro-1,3-oxazole-4-carbon-yl)-5′-(3-fluorophenyl)-tetrahydro-3′H-spiro [piperidine-4,2′-pyrrolo[2,1-b][1,3]oxazol]-3′-one]", "EC50": 60.8}
{"smiles": "Cc1cnc(C(=O)N2CCC3(CC2)O[C@@H]2CC[C@@H](c4cc(F)cc(F)c4)N2C3=O)cn1", "note": "[Example 6.3, (5′S,7a′R)-5′-(3,5-difluorophenyl)-1-(5-methylpyrazine-2-carbonyl)tetrahydro-3′H-spiro[piperidine-4,2′-pyrrolo[2,1-b] [1,3]oxazol]-3′-one]", "EC50": 60.1}
{"smiles": "O=C(c1ccc(O)cc1F)N1CCC2(CC1)O[C@@H]1CC[C@@H](c3cc(F)cc(F)c3)N1C2=O", "note": "[Example 5.55, (5′S,7a′R)-5′-(3,5-difluoro-phenyl)-1-(2-fluoro-4-hydroxybenzoyl)tetrahydro-3′H-spiro[piperidine-4,2′-pyrrolo[2,1-b]oxazol]-3'-one]", "EC50": 26.2}
{"smiles": "O=C1N2[C@@H](CC[C@H]2c2cc(F)cc(F)c2)OC12CCN(c1ncnc3ccnn13)CC2", "note": "[Example 4.128, (5′S,7a′R)-5′-(3,5-difluorophenyl)-1-(pyrazolo[1,5-a] [1,3,5]triazin-4-yl)tetrahydro-3′H-spiro[piperidine-4,2′-pyrrolo[2,1-b] [1,3]oxazol]-3′-one]", "EC50": "< 25"}
{"smiles": "O=C1N2[C@@H](CC[C@H]2c2ccccc2)SC12CCN(c1ccnc3ccnn13)CC2", "note": "[Example 4.116, (5′S,7a′R)-5′-phenyl-1-(pyrazolo[1,5-a]pyrimidin-7-yl)tetrahydro-3′H-spiro[piperidine-4,2′-pyrrolo[2,1-b]thiazol]-3′-one]", "EC50": "< 25"}
{"smiles": "O=C(c1ncccc1Cl)N1CCC2(CC1)O[C@@H]1CC[C@@H](c3cc(F)cc(F)c3)N1C2=O", "note": "[Example 6.53, (5′S,7a′R)-1-(3-chloropyridine-2-carbonyl)-5′-(3,5-difluorophenyl)tetra-hydro-3′H-spiro [piperidine-4,2′-pyrrolo[2,1-b][1,3]-oxazol]-3′-one]", "EC50": 147}
{"smiles": "Cc1nccnc1[C@@H]1CC[C@H]2OC3(CCN(c4ccnc5c(F)cnn45)CC3)C(=O)N21", "note": "[Example 4.144, (5′S,7a′R)-1-(3-fluoropyrazolo[1,5-a]pyrimidin-7-yl)-5′-(3-methylpyrazin-2-yl)tetrahydro-3′H-spiro[piperidine-4,2′-pyrrolo[2,1-b] [1,3]oxazol]-3′-one]", "EC50": 41.7}
{"smiles": "O=C1N2[C@@H](CC[C@H]2c2ccccc2)OC12CCN(c1ccc(F)c3ncnn13)CC2", "note": "[Example 4.223, (5′S,7a′R)-1-(8-fluoro[1,2,4]triazolo[1,5-a]pyridin-5-yl)-5′-phenyltetrahydro-3′H-spiro[piperidine-4,2′-pyrrolo[2,1-b] [1,3]oxazol]-3′-one]", "EC50": "< 25"}
{"smiles": "Cc1cc(N2CCC3(CC2)O[C@@H]2CC[C@@H](c4ccccc4)N2C3=O)cc(C#N)n1", "note": "[Example 4.16, 6-methyl-4-[(5′S,7a′R)-3′-oxo-5′-phenyltetrahydro-1H,3′H-spiro[piperidine-4,2′-pyrrolo[2,1-b] [1,3]oxazol]-1-yl]pyridine-2-carbonitrile]", "EC50": "< 25"}
{"smiles": "O=C(c1nc2ccccc2s1)N1CCC2(CC1)O[C@@H]1CC[C@@H](c3cc(F)cc(F)c3)N1C2=O", "note": "[Example 6.28, (5′S,7a′R)-1-(1,3-benzothiazole-2-car-bonyl)-5′-(3,5-difluoro-phenyl)tetrahydro-3′H-spiro[piperidine-4,2′-pyrrolo[2,1-b] [1,3]oxazol]-3′-one]", "EC50": 30.2}
{"smiles": "O=C(c1ccccc1)N1CCC2(CC1)O[C@@H]1CC[C@@H](c3cccc(F)c3)N1C2=O", "note": "[Example 1.5, (5′S,7a′R)-1-(benzenecarbonyl)-5′-(3-fluorophenyl)tetrahydro-3′H-spiro[piperidine-4,2′-pyrrolo[2,1-b] [1,3]oxazol]-3′-one]", "EC50": "< 25"}
{"smiles": "O=C1N2[C@@H](CC[C@H]2c2ccccc2)OC12CCN(c1nc3ccccc3o1)CC2", "note": "[Example 4.154, (5′S,7a′R)-1-(1,3-benzoxazol-2-yl)-5′-phenyltetrahydro-3′H-spiro[piperidine-4,2′-pyrrolo[2,1-b] [1,3]oxazol]-3′-one]", "EC50": 35.7}
{"smiles": "N#Cc1cc(F)cc(C(=O)N2CCC3(CC2)O[C@@H]2CC[C@@H](c4cc(F)cc(F)c4)N2C3=O)c1", "note": "[Example 5.15, 3-((5′S,7a′R)-5′-(3,5-difluorophenyl)-3′-oxo-tetrahydro-3′H-spiro [piperidine-4,2′-pyrrolo-[2,1-b]oxazole]-1-carbon-yl)-5-fluorobenzonitrile]", "EC50": 96.8}
{"smiles": "O=C1N2[C@@H](CC[C@H]2c2ccccc2F)OC12CN(c1ccnc(Cl)c1)C2", "note": "[Example 4.109, (5′S,7a′R)-1-(2-chloropyridin-4-yl)-5′-(2-fluorophenyl)tetrahydro-3′H-spiro[azetidine-3,2′-pyrrolo[2,1-b]oxazol]-3′-one]", "EC50": 37.8}
{"smiles": "CC1(NC(=O)c2nc(N3CCC4(CC3)O[C@@H]3CC[C@@H](c5cc(F)cc(F)c5)N3C4=O)ncc2F)CC1", "note": "[Example 7.11, 2-[(5′S,7a′R)-5′-(3,5-difluorophenyl)-3′-oxotetrahydro-1H,3′H-spiro[piperidine-4,2′-pyrrolo[2,1-b][1,3]oxazol]-1-yl]-5-fluoro-N-(1-methyl-cyclopropyl)pyrimidine-4-carboxamide]", "EC50": 92.2}
{"smiles": "O=C1N2[C@@H](CC[C@H]2c2ccccc2)OC12CN(c1ccnc3ccnn13)C2", "note": "[Example 4.136, (5′S,7a′R)-5′-phenyl-1-(pyrazolo[1,5-a]pyrimidin-7-yl)tetrahydro-3′H-spiro[azetidine-3,2′-pyrrolo[2,1-b] [1,3]oxazol]-3′-one]", "EC50": "< 25"}
{"smiles": "O=C1N2[C@@H](CC[C@H]2c2ccccc2F)OC12CN(Cc1ccccc1)C2", "note": "[Example 22.7, (5′S,7a′R)-1-benzyl-5′-(2-fluorophenyl)tetrahydro-3′H-spiro[azetidine-3,2′-pyrrolo[2,1-b][1,3]oxazol]-3′-one]", "EC50": 103}
{"smiles": "O=C1N2[C@@H](CC[C@H]2c2ccccc2)OC12CCN(c1cccn3nccc13)CC2", "note": "[Example 4.150, (5′S,7a′R)-5′-phenyl-1-(pyrazolo[1,5-a]pyridin-4-yl)tetrahydro-3′H-spiro[piperidine-4,2′-pyrrolo[2,1-b] [1,3]oxazol]-3′-one]", "EC50": 34.4}
{"smiles": "COCOc1cc(-c2ccc(N3CCC4(CC3)O[C@@H]3CC[C@@H](c5ccccc5)N3C4=O)nc2)on1", "note": "[Example 4.164, (5′S,7a′R)-1-{5-[3-(methoxymethoxy)-1,2-oxazol-5-yl]pyridin-2-yl}-5′-phenyltetrahydro-3′H-spiro[piperidine-4,2′-pyrrolo[2,1-b] [1,3]oxazol]-3′-one]", "EC50": 28.8}
{"smiles": "COc1ccc(N2CCC3(CC2)O[C@@H]2CC[C@@H](c4ccccc4)N2C3=O)n2ncnc12", "note": "[Example 19.8, (5′S,7a′R)-1-(8-methoxy[1,2,4]triazolo [1,5-a]pyridin-5-yl)-5′-phenyltetrahydro-3′H-spiro[piperidine-4,2′-pyrrolo[2,1-b][1,3]oxazol]-3′-one]", "EC50": 394}
{"smiles": "O=C(c1ccccc1F)N1CCC2(CC1)O[C@@H]1CC[C@@H](c3cccc(F)c3)N1C2=O", "note": "[Example 1.7, (5′S,7a′R)-1-(2-fluorobenzene-1-carbonyl)-5′-(3-fluorophenyl)tetrahydro-3′H-spiro[piperidine-4,2′-pyrrolo[2,1-b] [1,3]oxazol]-3′-one]", "EC50": "< 25"}
{"smiles": "O=C(c1c(Cl)nc2ccccn12)N1CCC2(CC1)O[C@@H]1CC[C@@H](c3cc(F)cc(F)c3)N1C2=O", "note": "[Example 6.31, (5′S,7a′R)-1-(2-chloroimidazo[1,2-a]pyridine-3-carbonyl)-5′-(3,5-difluorophen-yl)tetrahydro-3′H-spiro[piperidine-4,2′-pyrrolo[2,1-b][1,3]oxazol]-3′-one]", "EC50": 36.5}
{"smiles": "N#Cc1cccc(C(=O)N2CCC3(CC2)O[C@@H]2CC[C@@H](c4cccc(F)c4)N2C3=O)c1F", "note": "[Example 6.122, 2-fluoro-3-[(5′S,7a′R)-5′-(3-fluorophenyl)-3′-oxotetrahydro-1H,3′H-spiro[piperi-dine-4,2′-pyrrolo[2,1-b][1,3]oxazole]-1-carbonyl]benzonitrile]", "EC50": 47.5}
